Measured values reported in ChEMBL document CHEMBL1127324, “Solid-state and solution conformations of the potent HIV inhibitor, 4'-azidothymidine” (J Med Chem, 1994).
pIC50: −log10 of the molar value.

System: Human immunodeficiency virus
Test: In vitro inhibitory activity against HIV was determined
Assay type: functional, organism-based
Settings: Human immunodeficiency virus 1

Compound `Cc1cn([C@H]2C[C@H](O)[C@](CO)(N=[N+]=[N-])O2)c(=O)[nH]c1=O` has a pIC50 of 8.00.
